`O=C(C1CCN(c2ccncn2)CC1)N1CCN(S(=O)(=O)c2ccc3ccccc3c2)CC1` [Example 55, 1-(2-naphthylsulphonyl)-4-[1-(4-pyrimidinyl)piperidin-4-ylcarbonyl]-piperazine]: the melting point (in general, the temperature of the solid-liquid transition) was 203 to 205 °C.

For the molecule `O=C(C1CCN(c2ccncn2)CC1)N1CCN(S(=O)(=O)/C=C/c2ccc(Cl)cc2)CC1` [Example 57, 1-[(E)-4-chlorostyrylsulphonyl]-4-[1-(4-pyrimidinyl)piperidin-4-ylcarbonyl]piperazine], the melting point was in the range of 209 to 210 °C.

Turning to `O=C(O)C1CN(S(=O)(=O)c2ccc3cc(Br)ccc3c2)CCN1C(=O)C1CCN(c2ccncc2)CC1` (stereo not shown) [Example 83, 4-(6-bromonaphth-2-ylsulphonyl)-2-carboxy-1-[1-(4-pyridyl)piperidin-4-ylcarbonyl]piperazine], the melting point was 216 to 222 °C (dec.).

In turn, `O=C(C1CCN(c2nc(Cl)nc(Cl)n2)CC1)N1CCN(S(=O)(=O)c2ccc3cc(Cl)ccc3c2)CC1` [Example 73, 1-(6-chloronaphth-2-ylsulphonyl)-4-[1-(4,6-dichloro-1,3,5-triazin-2-yl)piperidin-4-ylcarbonyl]piperazine] showed a melting point of 230 to 233 °C.

`O=C(CNS(=O)(=O)c1ccc2ccccc2c1)NCCNC(=O)C1CCN(c2ccncn2)CC1` [Example 32, 2-(2-naphthalenesulphonamido)-N-{2-[1-(4-pyrimidinyl)piperidin-4-ylcarbonylamino]ethyl}acetamide] displayed a melting point of 178 to 179 °C.

As for `O=C(C1CN(S(=O)(=O)c2ccc3cc(Br)ccc3c2)CCN1C(=O)C1CCN(c2ccncc2)CC1)N1CCOCC1` (stereo not shown) [Example 84, 4-(6-bromonaphth-2-ylsulphonyl)-2-morpholinocarbonyl-1-[1-(4-pyridyl)-piperidin-4-ylcarbonyl]piperazine], the melting point was in the range of 235 to 237 °C.

Consider `O=C(O)C1CN(C(=O)C2CCN(c3ccncc3)CC2)CCN1S(=O)(=O)c1ccc2ccccc2c1` (stereo not shown) [Example 43, 1-(2-naphthylsulphonyl)-4-[1-(4-pyridyl)piperidin-4-ylcarbonyl]-piperazine-2-carboxylic acid], for which the melting point is 188 to 193 °C.

As for `O=C(c1ccc(NS(=O)(=O)/C=C/c2ccc(Cl)cc2)cc1)N1CCN(c2ccncc2)CC1` [Example 89, N-{4-[4-(4-pyridyl)piperazin-1-ylcarbonyl]phenyl}-(E)-4-chlorostyrenesulphonamide], the melting point was in the range of 207 to 209 °C.

Turning to `O=C(CNS(=O)(=O)c1ccc2ccccc2c1)NCC(NC(=O)C1CCN(c2ccncc2)CC1)C(=O)N1CCCCC1` (stereo not shown) [Example 11, 2-(2-naphthalenesulphonamido)-N-{2-piperidinocarbonyl-2-[1-(4-pyridyl)piperidin-4-ylcarbonylamino]ethyl}acetamide], the melting point lay within 200 to 202 °C.

The molecule `O=C(CC1CCN(c2ccncc2)CC1)NCC(NC(=O)CNS(=O)(=O)c1ccc2ccccc2c1)C(=O)N1CCCCC1` (stereo not shown) [Example 4, 2-(2-naphthalenesulphonamido)-N-(1-piperidinocarbonyl-2-{2-[1-(4-pyridyl)piperidin-4-yl]acetamido}ethyl)acetamide] displayed a melting point of 148 to 149 °C.

In turn, `CCOC(=O)C1CN(S(=O)(=O)c2ccc3cc(Br)ccc3c2)CCN1C(=O)C1CCN(c2ccncc2)CC1` (stereo not shown) [Example 82, 4-(6-bromonaphth-2-ylsulphonyl)-2-ethoxycarbonyl-1-[1-(4-pyridyl)-piperidin-4-ylcarbonyl]piperazine] displayed a melting point of 117 to 121 °C.

The molecule `Cc1cc(N2CCC(C(=O)NCCNC(=O)CNS(=O)(=O)c3ccc4ccccc4c3)CC2)nc(N)n1` [Example 34, N-{2-[1-(2-amino-6-methylpyrimidin-4-yl)piperidin-4-ylcarbonylamino]ethyl}-2-(2-naphthalenesulphonamido)acetamide] registered a melting point of 225 to 226 °C.

Take `O=C(CCNS(=O)(=O)c1ccc2ccccc2c1)NC(CNC(=O)C1CCN(c2ccncc2)CC1)C(=O)N1CCCCC1` (stereo not shown) [Example 20, 3-(2-naphthalenesulphonamido)-N-{1-(piperidinocarbonyl)-2-[1-(4-pyridyl)piperidin-4-ylcarbonylamino]ethyl}propionamide]: the melting point lay within 201 to 203 °C.

Consider `O=C(C1CCN(S(=O)(=O)c2ccc3cc(Br)ccc3c2)CC1)N1CCN(c2ccncc2)CC1` [Example 92, 1-[1-(6-bromonaphth-2-ylsulphonyl)piperidin-4-ylcarbonyl]-4-(4-pyridyl)piperazine], for which the melting point lay within 229 to 230 °C.

With `O=C(C1CCN(c2ccncc2)CC1)N1CCN(S(=O)(=O)c2ccc3ccccc3c2)CC1` [Example 2, 1-(2-naphthylsulphonyl)-4-[1-(4-pyridyl)piperidin-4-ylcarbonyl]piperazine], the melting point fell in the range of 172 to 173 °C.

On to `Cl.O=C(c1ccc(NS(=O)(=O)c2ccc(-c3ccc(Br)cc3)cc2)cc1)N1CCN(c2ccncc2)CC1`, for which the melting point lay within 201 to 205 °C.

`O=C(CNS(=O)(=O)c1ccc2ccccc2c1)NC(CNC(=O)N1CCN(c2ccncc2)CC1)C(=O)N1CCCCC1` (stereo not shown) [Example 3, 2-(2-naphthalenesulphonamido)-N-{1-piperidinocarbonyl-2-[4-(4-pyridyl)piperazin-1-ylcarbonylamino]-ethyl}acetamide] yielded a melting point of 223 to 226 °C.

The molecule `O=C(CNS(=O)(=O)c1ccc2ccccc2c1)NCCNC(=O)C1CCN(c2ccncc2)CC1` [Example 30, 2-(2-naphthalenesulphonamido)-N-{2-[1-(4-pyridyl)piperidin-4-ylcarbonylamino]ethyl}acetamide] gave a melting point of 107 to 109 °C.

Regarding `Cc1ccc(NC(=O)NC(CNC(=O)C2CCN(c3ccncc3)CC2)C(=O)N2CCCCC2)cc1` (stereo not shown) [Example 22, N-{2-piperidinocarbonyl-2-[3-(4-tolyl)ureido]ethyl}-1-(4-pyridyl)-piperidine-4-carboxamide], the melting point was 252 to 253 °C.

Take `O=C(C1CCN(c2ccncc2)CC1)N1CCN(S(=O)(=O)c2ccc3ccccc3c2)C(Cc2ccccc2)C1` (stereo not shown) [Example 66, 2-benzyl-1-(2-naphthylsulphonyl)-4-[1-(4-pyridyl)piperidin-4-ylcarbonyl]piperazine]: the melting point lay within 186 to 188 °C.

Consider `Cc1cc(N2CCC(C(=O)N3CCN(S(=O)(=O)c4ccc5cc(Cl)ccc5c4)CC3)CC2)nc(N)n1` [Example 86, 4-[1-(2-amino-6-methylpyrimidin-4-yl)piperidin-4-ylcarbonyl]-1-(6-chloronaphth-2-ylsulphonyl)piperazine], for which the melting point was 210 to 212 °C.

`O=C(N1CCN(c2ccncc2)CC1)N1CCN(S(=O)(=O)c2ccc3ccccc3c2)CC1` [Example 50, 1-(2-naphthylsulphonyl)-4-[4-(4-pyridyl)-piperazin-1-ylcarbonyl]piperazine] showed a melting point of 210 to 212 °C.

Consider `O=C(C1CCN(c2ccncc2)CC1)N1CCN(S(=O)(=O)c2ccc(-c3ccccn3)cc2)CC1` [Example 60, 1-[4-(2-pyridyl)phenylsulphonyl]-4-[1-(4-pyridyl)piperidin-4-ylcarbonyl]piperazine], for which the melting point lay in the range of 224 to 226 °C.

Consider `O=C(O)C1CN(S(=O)(=O)c2ccc3ccccc3c2)CCN1C(=O)C1CCN(c2ccncc2)CC1` (stereo not shown) [Example 61, 2-carboxy-4-(2-naphthylsulphonyl)-1-[1-(4-pyridyl)piperidin-4-ylcarbonyl]piperazine], for which the melting point was 225 to 228 °C (dec.).

In turn, `CCOC(=O)C(CNC(=O)C1CCN(c2ccncc2)CC1)NC(=O)CNS(=O)(=O)c1ccc2ccccc2c1` (stereo not shown) [Example 6, N-{1-ethoxycarbonyl-2-[1-(4-pyridyl)-piperidin-4-ylcarbonylamino]ethyl}-2-(2-naphthalenesulphonamido)-acetamide] returned a melting point of 142 to 145 °C.

`O=C(CNS(=O)(=O)c1ccc2ccccc2c1)N[C@@H](CC(=O)N1CCN(c2ccncc2)CC1)C(=O)N1CCCCC1` [Example 18, 2-(2-naphthalenesulphonamido)-N-{(1S)-1-(piperidinocarbonyl)-2-[4-(4-pyridyl)piperazin-1-ylcarbonyl]ethyl}-acetamide] yielded a melting point of 201 to 203 °C.

Molecule `O=C(C1CCN(c2ccncc2)CC1)N1CCCN(S(=O)(=O)c2ccc3ccccc3c2)CC1` [Example 49, 1-(2-naphthylsulphonyl)-4-[1-(4-pyridyl)piperidin-4-ylcarbonyl]-1,4-diazepane] gave a melting point of 178 to 180 °C.

The molecule `Nc1nccc(N2CCC(C(=O)N3CCN(S(=O)(=O)c4ccc5cc(Cl)ccc5c4)CC3)CC2)n1` [Example 70, 4-[1-(2-aminopyrimidin-4-yl)piperidin-4-ylcarbonyl]-1-(6-chloronaphth-2-ylsulphonyl)piperazine] registered a melting point of 265 to 267 °C.

On to `Cc1ccc(-c2ccc(S(=O)(=O)N3CCN(C(=O)C4CCN(c5ccncc5)CC4)CC3)cc2)cc1` [Example 58, 1-(4′-methylbiphenyl-4-ylsulphonyl)-4-[1-(4-pyridyl)piperidin-4-ylcarbonyl]piperazine], for which the melting point fell in the range of 213 to 217 °C.

Turning to `O=C(CNS(=O)(=O)c1ccc2ccccc2c1)NC(CNC(=O)C1CCN(c2ccncc2)CC1)C(=O)O` (stereo not shown) [Example 9, 2-[2-(2-naphthalenesulphonamido)acetamido]-3-[1-(4-pyridyl)piperidin-4-ylcarbonylamino]propionic acid], the melting point is 108 to 111 °C (dec.).

`O=C(C1CCN(c2ccncn2)CC1)N1CCN(S(=O)(=O)c2ccc3cc(Cl)ccc3c2)CC1` [Example 69, 1-(6-chloronaphth-2-ylsulphonyl)-4-[1-(4-pyrimidinyl)-piperidin-4-ylcarbonyl]piperazine]: the melting point lay in the range of 218 to 219 °C.

For the origin of these results see patent publication US6730672B2, “Aminoheterocyclic derivatives as antithrombotic or anticoagulant agents” (Zeneca Limited, priority 1994, dated 2004).
